Biological target: T1, porcine kidney dehydropeptidase I (Sus scrofa, UniProt P22412)
T1 construct: Frozen porcine kidney cortex was homogenized; from tissue; host or cells: porcine kidney cortex
T1 sequence (P22412 17-409): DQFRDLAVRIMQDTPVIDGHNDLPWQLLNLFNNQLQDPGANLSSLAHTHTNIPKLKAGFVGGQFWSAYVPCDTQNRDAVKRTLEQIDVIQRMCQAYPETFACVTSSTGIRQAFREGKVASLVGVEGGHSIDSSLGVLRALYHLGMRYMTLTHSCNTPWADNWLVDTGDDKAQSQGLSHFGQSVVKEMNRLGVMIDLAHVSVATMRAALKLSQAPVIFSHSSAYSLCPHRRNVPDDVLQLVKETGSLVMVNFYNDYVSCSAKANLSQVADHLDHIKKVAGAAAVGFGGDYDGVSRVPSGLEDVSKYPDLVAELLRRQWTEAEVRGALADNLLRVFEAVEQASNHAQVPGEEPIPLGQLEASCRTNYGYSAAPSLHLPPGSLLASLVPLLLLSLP
Assay: Inhibitory activity on porcine kidney dehydropeptidase I (DHP-I)
Assay type: biochemical
Details: substrate glycyldehydrophenylalanine, pH 7.4, 37° C., 3 h pre-incubation; read-out: Concentration producing 50% inhibition (IC50)
Description: (1) Inhibitory activity on porcine kidney dehydropeptidase I
(i) Purification of porcine dehydropeptidase I
Frozen porcine kidney cortex was homogenized. Butanol (1/4 volume) pre-cooled in a dry ice-acetone bath was added to the homogenate, and the mixture was stirred at 4° C. for 43 hours. The mixture was then dialyzed for one day and centrifuged at 3,000 g for 30 minutes. To the resulting supernatant was added ammonium sulfate. A precipitate at the salt concentration range between 50 and 75% was collected to give a crude enzyme preparation which was re-dissolved in a 50 mM MOPS buffer containing 0.5 M NaCl. The solution was charged on a cilastatin affinity column. Elution with a 50 mM MOPS buffer containing 0.5 M NaCN gave a purified enzyme preparation.
(ii) Measurement of inhibitory activity
The resulting enzyme preparation (3 mU) and an inhibitor were pre-incubatedat 37° C. for 3 hours in 2.7 ml of a 50 mM MOPS buffer (pH 7.4), and then 2.475 ml of the mixture was transferred into a cuvette. As a substrate, 25 microliters of a 5 mM glycyldehydrophenylalanine solution in a 50 mM MOPS buffer (pH 7.4) was added to start an enzymic reaction. The reaction was carried out at 37° C. in a spectrophotometer fitted with a constant-emperature device, and a decrease of the absorbance at 275 nm during a period of 5 minutes was measured. […] An IC50 value was calculated from the percent inhibition data.
One unit (U) is defined as the amount of the enzyme which hydrolyzes 1 micromole of the substrate (glycyldehydrophenylalanine) per minute at a substrate concentration of 0.05 mM at 37° C. in a 50 mM MOPS buffer (pH 7.4).

With `CC(C)CP(=O)(O)C/C(=C\C1CCCCC1)C(=O)O` [Compound No. 2, (Z)-3-cyclohexyl-2-(hydroxyisobutylphosphinoyl)methylpropenoic acid] the IC50 was 13 nM.
